Patent US9695155B2, “Herbicidal substituted pyrimidinyloxy benzene compounds” (E. I. DU PONT DE NEMOURS AND COMPANY, priority 2013, dated 2017)

What was measured:
[1] = tested on: sedge, umbrella; assay: Test B flooded paddy test; type: in vivo, Cyperus difformis; conditions: Flood, 250 g ai/ha; 0 to 100 scale where 0 is no effect and 100 is complete control
Summary of the method: (§1)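 Plants were grown to the 2-leaf stage, then pots were flooded to 3 cm above the soil and compounds were applied directly into the paddy water. That depth was held throughout, and after 13 to 15 days in the greenhouse injury was rated visually against controls on a 0–100 scale (0 no effect, 100 complete control).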

[2] = tested on: Heteranthera limosa; assay: Test B flooded paddy test; type: in vivo; conditions: Flood, 250 g ai/ha; 0 to 100 scale where 0 is no effect and 100 is complete control
Summary of the method: as §1

[3] = tested on: barnyardgrass; assay: Test A postemergence; type: in vivo, Echinochloa crus-galli; conditions: 0 to 100 scale, 0 no effect, 100 complete control
Summary of the method: (§2)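 Injury scores run from 0, no effect, to 100, complete control, judged by eye against untreated plants roughly 10 days after treatment. Chemicals carried a surfactant in a non-phytotoxic solvent and went onto loam–sand soil preemergence or onto one- to two-leaf seedlings postemergence.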

[4] = tested on: giant foxtail; assay: Test A postemergence; type: in vivo, Setaria faberii; conditions: 0 to 100 scale, 0 no effect, 100 complete control
Summary of the method: as §2

[5] = tested on: Italian ryegrass; assay: Test A preemergence; type: in vivo, Lolium multiflorum
Summary of the method: as §2

[6] = tested on: kochia; assay: Test A preemergence; type: in vivo, Kochia scoparia
Summary of the method: as §2

[7] = tested on: wheat; assay: Test A postemergence; type: in vivo, Triticum aestivum; conditions: 0 to 100 scale, 0 no effect, 100 complete control
Summary of the method: as §2

[8] = tested on: barnyardgrass; assay: Test B flooded paddy test; type: in vivo, Echinochloa crus-galli; conditions: Flood, 250 g ai/ha; 0 to 100 scale where 0 is no effect and 100 is complete control
Summary of the method: as §1

[9] = tested on: corn; assay: Test A postemergence; type: in vivo, Zea mays; conditions: 0 to 100 scale, 0 no effect, 100 complete control
Summary of the method: as §2

[10] = tested on: barnyardgrass; assay: Test A preemergence; type: in vivo, Echinochloa crus-galli
Summary of the method: as §2

[11] = tested on: blackgrass; assay: Test A postemergence; type: in vivo, Alopecurus myosuroides; conditions: 0 to 100 scale, 0 no effect, 100 complete control
Summary of the method: as §2

[12] = tested on: ragweed; assay: Test A preemergence; type: in vivo, Ambrosia elatior
Summary of the method: as §2

[13] = tested on: pigweed; assay: Test A postemergence; type: in vivo, Amaranthus retroflexus; conditions: 0 to 100 scale, 0 no effect, 100 complete control
Summary of the method: as §2

[14] = tested on: kochia; assay: Test A postemergence; type: in vivo, Kochia scoparia; conditions: 0 to 100 scale, 0 no effect, 100 complete control
Summary of the method: as §2

[15] = tested on: giant foxtail; assay: Test A preemergence; type: in vivo, Setaria faberii
Summary of the method: as §2

[16] = tested on: rice; assay: Test B flooded paddy test; type: in vivo, Oryza sativa; conditions: Flood, 250 g ai/ha; 0 to 100 scale where 0 is no effect and 100 is complete control
Summary of the method: as §1

[17] = tested on: ragweed; assay: Test A postemergence; type: in vivo, Ambrosia elatior; conditions: 0 to 100 scale, 0 no effect, 100 complete control
Summary of the method: as §2

[18] = tested on: pigweed; assay: Test A preemergence; type: in vivo, Amaranthus retroflexus
Summary of the method: as §2

[19] = tested on: Italian ryegrass; assay: Test A postemergence; type: in vivo, Lolium multiflorum; conditions: 0 to 100 scale, 0 no effect, 100 complete control
Summary of the method: as §2

[20] = tested on: galium; assay: Test A postemergence; type: in vivo, Galium aparine; conditions: 0 to 100 scale, 0 no effect, 100 complete control
Summary of the method: as §2

[21] = 31 g ai/ha, 0 to 100 scale where 0 is no effect and 100 is complete control, visual, approximately 10 days

Clc1cnc(Oc2ccccc2-n2cccc2)nc1 [Compound 269]
0: Plant response rating, Sedge, Umbrella [1] | Plant response rating, Ducksalad [2] | Plant response rating, Barnyardgrass ([3]; 31 g ai/ha) | Plant response rating, Barnyardgrass ([3]; 125 g ai/ha) | Plant response rating, Foxtail, Giant ([4]; 31 g ai/ha) | Plant response rating, Foxtail, Giant ([4]; 125 g ai/ha) | Plant response rating, Ryegrass, Italian [5, 21] | Ryegrass, Italian plant response rating (0 to 100 scale) ([5]; 125 g ai/ha) | Plant response rating, Kochia [6, 21] | Kochia plant response rating (0 to 100 scale) ([6]; 125 g ai/ha) | Plant response rating, Wheat ([7]; 31 g ai/ha) | Plant response rating, Wheat ([7]; 125 g ai/ha) | Plant response rating, Barnyardgrass [8] | Plant response rating, Corn ([9]; 31 g ai/ha) | Plant response rating, Corn ([9]; 125 g ai/ha) | Plant response rating, Barnyardgrass [10, 21] | Barnyardgrass plant response rating (0 to 100 scale, 0 is no effect, 100 is complete control) ([10]; 125 g ai/ha) | Plant response rating, Blackgrass ([11]; 31 g ai/ha) | Plant response rating, Blackgrass ([11]; 125 g ai/ha) | Plant response rating, Ragweed [12, 21] | Ragweed plant response rating (0 to 100 scale) ([12]; 125 g ai/ha) | Plant response rating, Pigweed ([13]; 31 g ai/ha) | Plant response rating, Pigweed ([13]; 125 g ai/ha) | Plant response rating, Kochia ([14]; 31 g ai/ha) | Plant response rating, Kochia ([14]; 125 g ai/ha) | Plant response rating, Foxtail, Giant [15, 21] | Foxtail, Giant plant response rating (0 to 100 scale) ([15]; 125 g ai/ha) | Plant response rating, Rice [16] | Plant response rating, Ragweed ([17]; 31 g ai/ha) | Plant response rating, Ragweed ([17]; 125 g ai/ha) | Plant response rating, Pigweed [18, 21] | Pigweed plant response rating (0 to 100 scale) ([18]; 125 g ai/ha) | Plant response rating, Ryegrass, Italian ([19]; 31 g ai/ha) | Plant response rating, Ryegrass, Italian ([19]; 125 g ai/ha) | Plant response rating, Galium ([20]; 31 g ai/ha) | Plant response rating, Galium ([20]; 125 g ai/ha)
